Patent US7935359B2, “Use of L 2-thiohistidine or one of its derivatives as a depigmenting agent in cosmetics” (LVMH Recherche, priority 2006, dated 2011)

System: melanocytes of separated mammary epidermis
Assay: Depigmenting activity on separated epidermis incubated with L-DOPA/active principle solution, optical microscopy and counting of melanin grains
Format: cell-based, human
Conditions: for depigmenting activity: separated epidermis, L-DOPA; for grains of melanin counted, Mean: mean of 3 tests
Method: In this Example a quantitative comparative test is carried out on a separated epidermis in order to show the depigmenting activity of L-2-thiohistidine compared with various depigmenting agents known in the prior art, especially kojic acid or ergothioneine, and also compared with a control sample comprising DOPA oxidase.
The procedure of this test is similar to that described in Example II of the LVMH RECHERCHE document FR-A-2,867,384 published on 16 Sep. 2005, to which those skilled in the art may usefully refer and which is incorporated by reference.
Frozen mammary epidermis originating from plastic surgery on a person, reference P148AB39, are separated by incubation in 2N NaBr for 1 h 45 min at 37° C. They were fixed in a formalized fixative, buffered, rinsed and brought into contact with a volume/volume mixture of L-DOPA/active principle solution. After incubation, they were rinsed and mounted between slides and cover slips with mounting medium.
The epidermis were observed by optical microscopy with a magnification of 10.
The depigmenting activity which can be seen in FIGS. 1 to 5 was quantified statistically by counting the grains of melanin over a series of 3 tests. The values are shown in the Table below, in which the values obtained for the Student test are specified for ergothioneine versus L-2-thiohistidine and for kojic acid versus L-2-thiohistidine at the same concentration. The Student test is said to be significant if the value obtained is less than 0.05. Conclusions

| Structure (SMILES) | grains of melanin counted, Test 1 (50 μg) | grains of melanin counted, Test 2 (50 μg) | grains of melanin counted, Test 3 (50 μg) | depigmenting activity (50 μg/ml) | grains of melanin counted, Mean (50 μg) | grains of melanin counted, Test 1 (150 μg) | grains of melanin counted, Test 2 (150 μg) | grains of melanin counted, Test 3 (150 μg) | depigmenting activity compared with reference agents (in words) (150 μg/ml, versus kojic acid) | depigmenting activity (150 μg/ml) | grains of melanin counted, Mean (150 μg) | depigmenting activity compared with reference agents (in words) (comparable concentration, versus ergothioneine) |
| --- | --- | --- | --- | --- | --- | --- | --- | --- | --- | --- | --- | --- |
| NC(Cc1c[nH]c(=S)[nH]1)C(=O)O [L-2-thiohistidine, alpha-amino-2,3-dihydro-2-thioxo-1H-imidazole-4-propanoic acid] | 162 | 178 | 176 | 60% | 172 | 102 | 115 | 116 | very good depigmenting activity similar to that of the previously known kojic acid | 75% | 111 | better depigmenting activity than ergothioneine |
| C[N+](C)(C)[C@@H](Cc1c[nH]c(=S)[nH]1)C(=O)[O-] [ergothioneine, reference compound] | 194 | 210 | 190 | ~45% | 198 | – | – | – | – | – | – | – |
| O=c1cc(CO)occ1O [kojic acid, reference compound] | – | – | – | – | – | 124 | 137 | 138 | – | ~75% | 133 | – |
